Assays:
[1] = tested on: cell suspensions of C1-utilizers; assay: studies on production of 2-butanone from 2-butanol by cell suspensions of the strains tested; format: cell-based; settings: cell suspensions
Source text: The following summarizes tests conducted on the optimal conditions for the production of methyl ketones from C3 -C6 sec. alcohols.
The substrate specificity for the oxidation of C3 -C6 secondary alcohols by the strains of C1 -utilizers was studied.

[2] = tested on: Pseudomonas sp. ATCC 21439 (Obligate); assay: sec-alcohols to ketones by resting cell suspensions; format: cell-based; settings: methanol-grown cells
Experimental: (§1) The pH of the nutrient medium was adjusted to 7.0 by the addition of acid or base and 50 ml. samples of the nutrient medium were charged into a plurality of 300 ml. shaker flasks. The shaker flasks were inoculated with an inoculating loop of cells from an agar plate containing homogeneous colonies of the microorganisms on the plate (the purity of the isolates was confirmed by microscopic examination). The isolates had been maintained on methanol (0.4% V/V) agar plates or on agar plates under an atmosphere of methane and air having a 1:1 V/V gas ratio which had been transferred every two weeks. For growth on methanol, the medium was supplemented with 0.4% methanol. For growth on methane, the gaseous phase of the inoculated flasks was replaced with a gas mixture comprised of methane and air having a ratio of 1:1 on a V/V basis. The inoculated flasks were sealed air-tight and were incubated on a rotary shaker of orbital radius 2.5 cm. at 250 rpm and at 30° C. for two days until turbidity in the medium had developed. The cells were harvested by centrifugation at 10,000×g. at 4° C. for 30 minutes. The cell pellet was washed twice with a 0.05 M phosphate buffer at a pH of 7.0 (containing 0.02 M MgCl2). The washed cells were then suspended in a 0.05 M phosphate buffer at pH 7.0.
(§2) A 0.5 ml. sample of each washed cell suspension (2 mg. cells) was put into 10 ml. vials at 4° C. which were sealed with a rubber cap. The gaseous phase of the vials was removed with vacuum and then was replaced with a gas mixture of the substrate reactant (i.e., alkane or secondary alcohol) and oxygen at a 1:1 V/V ratio. (In the case of a liquid substrate, i.e., secondary alcohol, 10 μl of the substrate was put in the 10 ml. vials). […] Samples of product (1-3 μl) were withdrawn periodically with a microsyringe and the products were analyzed by gas chromatography (ionization flame detector column).
(§3) The procedure in Example 1 was repeated except that a plurality of methanol-utilizing methylotrophic microorganisms were each aerobically grown in a methanol-containing nutrient medium instead of a methane-containing medium. The nutrients in the medium were the same as indicated in Example 1 except that 0.4% V/V methanol was used as the alcohol dehydrogenase inducer and as the major carbon and energy source for growth. The cells were harvested and washed as described in Example 1. The resting microbial cells of the induced methanol-grown methanol-utilizing methylotrophic microorganisms were then contacted with C3 -C6 secondary alcohols in a buffered solution by the procedure of Example 1.

[3] = tested on: Pseudomonas MS ATTC 25262 (Facultative); assay: as above; format: cell-based; settings: methanol-grown cells
Experimental: as §1, §2, §3

[4] = tested on: Hansenula polymorpha ATCC 26012; assay: sec-alcohols to ketones by cell suspensions of yeasts; format: cell-based
[5] = tested on: purified secondary alcohol dehydrogenase (SADH); assay: substrate specificity and Michaelis constants of purified SADH; format: biochemical, Pseudomonas sp. ATCC 21439
[6] = tested on: secondary alcohol dehydrogenase (SADH), cell-free soluble extract; assay: oxidation of sec-alcohols by cell-free soluble extracts; format: biochemical, Methylosinus trichosporium OB3b (NRRL B-11,196); settings: soluble crude extract; grown on methanol
Experimental: To prepare the cell-free secondary alcohol dehydrogenase (SADH) system, the washed cells were disrupted with a Wave Energy Ultrasonic Oscillator, Model W201 (Wave Energy System, Inc., Newtown, Pa.) and centrifuged at 20,000×g. for 30 minutes. […] The enzyme activity was measured with a fluorescence spectrophotometer (Perkin Elmer, Model MPF 44A) by following the formation of reduced NAD (EX 340 nm, Em 460 nm). The formation of reduced NAD was also followed with an absorption spectrophotometer at 340 nm. The assay system (3 ml.) contained: potassium phosphate buffer pH 7.0; 150 μmol.; NAD 1 μmol.; a given amount of enzyme preparation; and secondary alcohol 10 μmol. The reaction was started by the addition of substrate. One unit of enzyme activity represents the reduction of one μmole NAD per minute. Protein concentrations were determined by the Lowry method (J. Biol. Chem., 193: 255-275 (1951)).
The experimental procedure for the tests reported in Table VIII were as follows: 1 mg protein of crude extract was added into a 0.5 ml. 0.05 M phosphate buffer (pH 7.0) in a 10-ml. vial. […] The reaction mixture was incubated at 30° C. on a water bath. A 3 μl sample was removed with a syringe at 15 min. of incubation and was assayed with g.l.c. Catalytic activity was also assayed by fluorescence spectrophotometry.

[7] = tested on: Methylobacterium organophilum XX (ATCC 27886); assay: sec-alcohols to ketones by resting cell suspensions; format: cell-based
Experimental: as §1, §2
(§4) The procedure in Example 1 was repeated wherein a plurality of the methane-utilizing methylotrophic microorganisms were each grown aerobically in a nutrient medium containing methane as the alcohol dehydrogenase enzyme inducer and as the major carbon and energy source for growth. The cells were harvested and washed as described in Example 1. The resting microbial cells of the induced methane-grown methane-utilizing methylotrophic microorganisms were then contacted with C3 -C6 secondary alcohols in a buffered solution by the procedure of Example 1.
(§5) In this example, the procedure in Example 1 was repeated except that a plurality of methane-utilizing methylotrophic microorganisms were each aerobically grown in a methanol-containing nutrient medium instead of a methane-containing medium. The nutrients in the medium were the same as indicated in Example 1 except that 0.4% V/V methanol was used as the alcohol dehydrogenase inducer and major source of carbon and energy for growth. Following growth, the cells were harvested and washed as described in Example 1.
(§6) The resting cells of the induced methanol-grown methylotrophic microorganisms were then contacted with secondary alcohols in a buffered solution by the procedure described in Example 1.
(§7) The procedure in Example 1 was repeated except that the methylotrophic microorganisms were each aerobically grown in an alcohol dehydrogenase-inducing growth medium containing methylamine or methyl formate as the alcohol dehydrogenase enzyme inducer and growth substrate instead of methane. The nutrients in the medium were the same as indicated in Example 1 except that 0.4% V/V of the alcohol dehydrogenase-inducer growth substrate was used as the major carbon and energy source. The cells were harvested and washed as described in Example 1. The resting microbial cells were then contacted with C3 -C6 secondary alcohols in a buffered solution by the conversion procedure of Example 1.

[8] = tested on: Methylosinus trichosporium OB3b (NRRL B-11,196); assay: as above; format: cell-based
Experimental: as §1, §2, §4, §5, §6, §7

[9] = tested on: Methanomonas methylovora ATCC 21852 (Obligate); assay: as above; format: cell-based
Experimental: as §1, §2, §3, §7

## CCCC(C)O (centres unmarked) [2-Pentanol, 2-pentanol]
[1]
  rate of oxidation of secondary alcohols by strains of C1-utilizers: much slower rate
[2]
  Conversion Rates, sec-alcohol to corresponding ketone: 0.05 μmoles/hr/mg protein
[3]
  Conversion Rates, sec-alcohol to corresponding ketone: 2.1 μmoles/hr/mg protein
[4]; Growth Substrate Ethanol
  Conversion Rate, sec-alcohol to corresponding ketone: 1.1 μmoles/hr/mg of protein
[4]; Growth Substrate Methanol
  Conversion Rate, sec-alcohol to corresponding ketone: 1.4 μmoles/hr/mg of protein
[4]; Growth Substrate Methylamine
  Conversion Rate, sec-alcohol to corresponding ketone: 1.2 μmoles/hr/mg of protein
[4]; Growth Substrate Methylformate
  Conversion Rate, sec-alcohol to corresponding ketone: 1.3 μmoles/hr/mg of protein
[4]; Growth Substrate Propylamine
  Conversion Rate, sec-alcohol to corresponding ketone: 0.82 μmoles/hr/mg of protein
[5]
  oxidation by purified SADH: lower rate
[6]
  Oxidation Rate, sec-alcohol to corresponding ketone: 0.1 nmole/min/mg protein
[7]; cells grown on methane
  Conversion Rates, sec-alcohol to corresponding ketone: 0.82 μmoles/hr/mg protein
[7]; cells grown on methanol
  Conversion Rates, sec-alcohol to corresponding ketone: 0.9 μn moles/hr/mg protein
[7]; methyl formate-grown cells
  Conversion Rates, sec-alcohol to corresponding ketone: 1.0 μmoles/hr/mg protein
[8]; cells grown on methane
  Conversion Rates, sec-alcohol to corresponding ketone: 2.7 μmoles/hr/mg protein
[8]; cells grown on methanol
  Conversion Rates, sec-alcohol to corresponding ketone: 2.9 μn moles/hr/mg protein
[8]; methyl formate-grown cells
  Conversion Rates, sec-alcohol to corresponding ketone: 1.5 μmoles/hr/mg protein
[9]; methanol-grown cells
  Conversion Rates, sec-alcohol to corresponding ketone: 2.1 μmoles/hr/mg protein
[9]; methyl formate-grown cells
  Conversion Rates, sec-alcohol to corresponding ketone: 1.5 μmoles/hr/mg protein
[9]; methylamine-grown cells
  Conversion Rates, sec-alcohol to corresponding ketone: 1.0 μmoles/hr/mg protein

## CCCCC(C)O (centres unmarked) [2-Hexanol, 2-hexanol]
[1]
  rate of oxidation of secondary alcohols by strains of C1-utilizers: much slower rate
[2]
  Conversion Rates, sec-alcohol to corresponding ketone: 0.03 μmoles/hr/mg protein
[3]
  Conversion Rates, sec-alcohol to corresponding ketone: 0.80 μmoles/hr/mg protein
[4]; Growth Substrate Ethanol
  Conversion Rate, sec-alcohol to corresponding ketone: 0.54 μmoles/hr/mg of protein
[4]; Growth Substrate Methanol
  Conversion Rate, sec-alcohol to corresponding ketone: 0.72 μmoles/hr/mg of protein
[4]; Growth Substrate Methylamine
  Conversion Rate, sec-alcohol to corresponding ketone: 0.62 μmoles/hr/mg of protein
[4]; Growth Substrate Methylformate
  Conversion Rate, sec-alcohol to corresponding ketone: 0.70 μmoles/hr/mg of protein
[4]; Growth Substrate Propylamine
  Conversion Rate, sec-alcohol to corresponding ketone: 0.48 μmoles/hr/mg of protein
[5]
  oxidation by purified SADH: lower rate
[6]
  Oxidation Rate, sec-alcohol to corresponding ketone: 0 nmole/min/mg protein
[7]; cells grown on methane
  Conversion Rates, sec-alcohol to corresponding ketone: 0.12 μmoles/hr/mg protein
[7]; cells grown on methanol
  Conversion Rates, sec-alcohol to corresponding ketone: 1.1 μn moles/hr/mg protein
[7]; methyl formate-grown cells
  Conversion Rates, sec-alcohol to corresponding ketone: 0.70 μmoles/hr/mg protein
[8]; cells grown on methane
  Conversion Rates, sec-alcohol to corresponding ketone: 0.07 μmoles/hr/mg protein
[8]; cells grown on methanol
  Conversion Rates, sec-alcohol to corresponding ketone: 0.9 μn moles/hr/mg protein
[8]; methyl formate-grown cells
  Conversion Rates, sec-alcohol to corresponding ketone: 0.72 μmoles/hr/mg protein
[9]; methanol-grown cells
  Conversion Rates, sec-alcohol to corresponding ketone: 1.0 μmoles/hr/mg protein
[9]; methyl formate-grown cells
  Conversion Rates, sec-alcohol to corresponding ketone: 0.60 μmoles/hr/mg protein
[9]; methylamine-grown cells
  Conversion Rates, sec-alcohol to corresponding ketone: 0.09 μmoles/hr/mg protein

Source: patent US4250259A, “Microbiological production of ketones from C3 -C6 secondary alcohols” (priority 1979, dated 1981)
